Consider 15 molecules from patent publication US7115620B2, “1,3-disubstituted-2-thioxo-imidazolidine-4,5-diones as potassium channel openers” (Wyeth, priority 2001, dated 2006).

Data set [1] has as its system isolated rat bladder strips. Briefly: Inhibition of contractions in isolated rat bladder strips. To be noted: 15 mM KCl-enhanced contractile activity; for IC50: 0.5 h, 30 minute challenge; for inhibition at 30 µM: read-out: % Inhibition @ 30 μM (maximum percentage inhibition of contractile activity). The text has this:
Sprague-Dawley rats (150–200 g) were rendered unconscious by CO2 asphyxiation and then euthanized by cervical dislocation. The bladder was removed into warm (37 deg.C.) physiological salt solution (PSS) of the following composition (mM): NaCl, 118.4; KCl, 4.7; CaCl2, 2.5; […]; NaHCO3, 24.9; KH2PO4, 1.2; glucose, 11.1; EDTA, 0.023; gassed with 95% O2; […]; pH 7.4. The bladder was opened and then cut into strips 1–2 mm in width and 7–10 mm in length. The strips are subsequently suspended in a 10 mL tissue bath under an initial resting tension of 1.5 g. The strips were held in place by two surgical clips one of which is attached to a fixed hook while the other is attached to an isometric force transducer. […] The carbachol was then washed out and the tissue allowed to relax to its resting level of activity. Following a further 30 minute period of recovery an additional 15 mM KCl were introduced into the tissue bath. […] Following stabilization of this enhanced level of contractile activity, incremental increases in the concentration of test compound or vehicle were introduced into the tissue bath. Contractile activity was measured for each compound or vehicle concentration during the last minute of a 30 minute challenge.
The isometric force developed by the bladder strips was measured using a […] to elicit 50% inhibition of pre-drug contractile activity (IC50 concentration) and was calculated from this concentration-response curve.

Turning to `C[C@@H](N1C(=O)C(=O)N(c2ccc(C#N)cc2)C1=S)C(C)(C)C` [Example 6, 4-[4,5-Dioxo-2-thioxo-3-((1R)-1,2,2-trimethyl-propyl)-imidazolidin-1-yl]-benzonitrile], the melting point (usually the temperature of the solid-liquid transition) was in the range of 197.6 to 197.8 °C. Further, the IC50 (in general, the midpoint of a concentration-inhibition curve) in data set [1] amounted to 4.2 ± 1.4 µM.

`CCC(C)(C)N1C(=O)C(=O)N(c2ccc(C#N)cc2)C1=S` [Example 3, 4-[3-(1,1-Dimethyl-propyl)-4,5-dioxo-2-thioxo-imidazolidin-1-yl]-benzonitrile] yielded a melting point of 173.1 to 174.3 °C. For the same molecule, the IC50 in data set [1] was determined as 25.7 ± 3.7 µM.

The molecule `CC(N1C(=O)C(=O)N(c2cccc(C#N)c2)C1=S)C(C)(C)C` (stereo not shown) [Example 7, 3-[4,5-Dioxo-2-thioxo-3-(1,2,2-trimethyl-propyl)-imidazolidin-1-yl]-benzonitrile] returned a melting point of 168.1 to 168.7 °C. Moreover, the inhibition (in general, how much of the control response was suppressed) at 30 µM in data set [1] amounted to 29.2%.

`CC(N1C(=O)C(=O)N(c2ccc(C#N)cc2)C1=S)C(C)(C)C` (racemic) [Example 1, 4-[4,5-Dioxo-2-thioxo-3-(1,2,2-trimethyl-propyl)-imidazolidin-1-yl]-benzonitrile] yielded a melting point of 219.6 to 219.9 °C. Further, the IC50 in data set [1] came to 3.3 ± 0.08 µM.

Molecule `CC(N1C(=O)C(=O)N(c2ccc(C(C)(C)C)cc2)C1=S)C(C)(C)C` (stereo not shown) [Example 13, 1-(4-tert-Butyl-phenyl)-2-thioxo-3-(1,2,2-trimethyl-propyl)-imidazolidine-4,5-dione] gave a melting point of 208.9 to 209.5 °C. The inhibition at 30 µM in data set [1] is 18.3%.

In turn, `CC(C)(C)CN1C(=O)C(=O)N(c2cccnc2)C1=S` [Example 15, 1-(2,2-Dimethyl-propyl)-3-pyridin-3-yl-2-thioxo-imidazolidine-4,5-dione] displayed a melting point of 111.4 to 112.8 °C. Further, the IC50 in data set [1] amounted to 3.6 ± 0.8 µM.

Take `CC(N1C(=O)C(=O)N(c2ccc(F)cc2F)C1=S)C(C)(C)C` (stereo not shown) [Example 10, 1-(2,4-Difluoro-phenyl)-2-thioxo-3-(1,2,2-trimethyl-propyl)-imidazolidine-4,5-dione]: the melting point was 155.2 to 156 °C. Moreover, the inhibition at 30 µM in data set [1] was determined as 23.1%.

`CC(C)(C)CN1C(=O)C(=O)N(c2ccc(F)cc2)C1=S` [Example 14, 1-(2,2-Dimethyl-propyl)-3-(4-fluoro-phenyl)-2-thioxo-imidazolidine-4,5-dione] displayed a melting point of 165.2 to 166.3 °C. In addition, the inhibition at 30 µM in data set [1] amounted to 15%.

In turn, `CC(N1C(=O)C(=O)N(c2ccc(Cl)cc2)C1=S)C(C)(C)C` (stereo not shown) [Example 12, 1-(4-Chloro-phenyl)-2-thioxo-3-(1,2,2-trimethyl-propyl)-imidazolidine-4,5-dione] had a melting point of 198.8 to 199.5 °C. Further, in data set [1], the inhibition at 30 µM came to 24.3%.

For the molecule `CC(N1C(=O)C(=O)N(c2ccc(Br)cc2)C1=S)C(C)(C)C` (stereo not shown) [Example 8, 1-(4-Bromo-phenyl)-2-thioxo-3-(1,2,2-trimethyl-propyl)-imidazolidine-4,5-dione], the melting point lay in the range of 207.1 to 207.9 °C. In data set [1], the inhibition at 30 µM was found to be 22.4% and the half-inhibitory concentration (IC50) is 27.2 µM.

`CC(C)(C)N1C(=O)C(=O)N(c2ccc(C#N)cc2)C1=S` [Example 4, 4-(3-tert-Butyl-4,5-dioxo-2-thioxo-imidazolidin-1-yl)-benzonitrile] gave a melting point of 200.4 to 201.3 °C. For the same molecule, the IC50 in data set [1] worked out at 30 ± 5 µM.

The molecule `CC(C)(C)CN1C(=O)C(=O)N(c2ccc(C#N)cc2)C1=S` [Example 2, 4-[3-(2,2-Dimethyl-propyl)-4,5-dioxo-2-thioxo-imidazolidin-1-yl]-benzonitrile] showed a melting point of 128 to 129 °C. In addition, the half-inhibitory concentration (IC50) in data set [1] stood at 3.4 ± 0.8 µM.

In the case of `CCc1cc(C#N)ccc1N1C(=O)C(=O)N(C(C)(C)CC)C1=S` [Example 5, 4-[3-(1,1-Dimethyl-propyl)-4,5-dioxo-2-thioxo-imidazolidin-1-yl]-3-ethyl-benzonitrile], the melting point is 172.8 to 173.3 °C. Besides, the IC50 in data set [1] amounted to 28.9 ± 2.6 µM.

As for `CN(C)c1ccc(N2C(=O)C(=O)N(CC(C)(C)C)C2=S)cc1.Cl` [Example 9, 1-(4-Dimethylamino-phenyl)-3-(2,2-dimethyl-propyl)-2-thioxo-imidazolidine-4,5-dione Hydrochloride], the melting point was in the range of 244 to 246 °C. Further, the inhibition at 30 µM in data set [1] came to 33.2%.

In the case of `CC(C)(C)CN1C(=O)C(=O)N(c2ccc(F)cc2F)C1=S` [Example 11, 1-(2,4-Difluoro-phenyl)-3-(2,2-dimethyl-propyl)-2-thioxo-imidazolidine-4,5-dione], the melting point was in the range of 156.2 to 156.9 °C. Also, the inhibition at 30 µM in data set [1] was found to be 30.6%.
